Measurements from patent US10968183B2, “Small molecule FIEL1 inhibitor in inflammatory and fibrotic lung injury” (UNIVERSITY OF PITTSBURGH—OF THE COMMONWEALTH SYSTEM OF …, priority 2015, dated 2021).
“Also recorded” adds a separate entry of the source.

What was measured:
[1] = system: bleomycin-induced lung injury in C57BL/6J mice; assay: Bleomycin lung fibrosis model in mice; type: in vivo; details: estimated 5 mg/kg/d; for lung (pulmonary) fibrosis: 7-21 days
Protocol: (§1) FIG. 7A. […] FIG. 7B. Structures of the BC-1480 backbone and lead compound BC-1485. FIG. 7C. FIEL1 protein was HIS-purified from FIEL1 expression in 293T cells using cobalt beads. Beads were then extensively washed prior to exposure to BC-1480 or BC-1485 at different concentrations (10^−4 to 100 μM). Purified PIAS4 protein was then incubated with drug-bound FIEL1 beads overnight. Beads were washed, and proteins were eluted and resolved on SDS-PAGE. The relative amounts of PIAS4 detected in the pull-downs was normalized to loading and quantified (n=2). FIG. 7D. MLE cells were exposed to BC-1480 or BC-1485 at various concentrations for 18 h. Cells were then collected and immunoblotted. FIGS. 7E-J. C57BL/6J mice were administered with bleomycin (0.05 U) for 7-21 days. Compounds BC-1480 and BC-1485 were given to mice through drinking water with an estimated dose of 5 mg/kg/d. Mice were euthanized, and lungs were lavaged with saline, harvested, and then homogenized. Lavage proteins, CXCL1, and total cell count were measured in FIGS. 7E-G. H. Survival studies of mice that were given bleomycin and compound treatments. Mice were carefully monitored over time; moribund, preterminal animals were immediately euthanized and recorded as deceased. Kaplan-Meier survival curves were generated using SPSS software (p<0.01 compared to Vehicle). Vehicle: n=24, BC-1480: n=13, BC-1485: n=12. FIG. 7I. Hydroxyproline contents were measured in lungs from 7, 14, and 21d after bleomycin challenge. FIG. 7J. Trichrome staining was performed on lung samples from E. Original magnification, ×10. *p<0.05 compared to Vehicle (t-test). Data are an average of two experiments (FIGS. 7E-J, 4-8 mice/group)
C57BL/6J mice were administered i.t. with bleomycin (0.05 U) for 7-21 days. Compounds BC-1480 and BC-1485 were given to mice through drinking water with an estimated dose of 5 mg/kg/d. Mice were then euthanized, and lungs were lavaged with saline, harvested, and then homogenized. Lavage IL-6 was measured in (FIG. 16A). Lavage cells were also processed for Wright-Giemsa stain; Lavage macrophages, neutrophils and lymphocytes were counted and graphed (FIGS. 16B-16D). H&E staining was performed on lung samples from A. Original magnification, ×10. *p<0.05 compared to Vehicle (t test). Data are an average of two experiments (A-E, 4-8 mice/group).
Murine lungs were dried and weighed prior to digestion with HCl. Hydroxyproline concentrations were measuring using methods previously described in Kesava Reddy et al., Clinical Biochemistry, 29(3): 225-229 (1996), and Neuman et al., J. of Biol. Chem., 184(1): 299-306 (1950). Hydroxyproline content was normalized to dry lung weight.
All procedures were approved by the University of Pittsburgh Institutional Animal Care and Use Committee. For fibrosis studies, male C57BL/6J mice were deeply anesthetized using a ketamine/xylazine mixture, and the larynx was well visualized under a fiber optic light source before endotracheal intubation with a 3/400 24-gauge plastic catheter. 10^7 CFU of lentivirus encoding genes for Empty (E), FIEL1, CON shRNA, or KIAA0317 shRNA was given i.t. for 144 h before administration of bleomycin (0.02 U˜0.05 U i.t.) for up to 21 days. Animals were euthanized and assayed for BAL protein, cell count, cytokines, and lung infiltrates. Survival studies were performed on mice that were given bleomycin (0.02 U˜0.05 U i.t.). Mice were carefully monitored over time; moribund, preterminal animals were immediately euthanized and recorded as deceased. For drug studies, mice were deeply anesthetized as above. Bleomycin (0.05 U i.t.) was given i.t. before BC-1480 or BC-1485 (5 mg/kg/d) was administered to the mice through their drinking water. 7-21d later, animals were euthanized and analyzed as above.

JAK/STAT pathway = assay: JAK/STAT protein immunoblotting in HCT8 cells exposed to DSS or IFNγ; type: cell-based
Protocol: HCT8 cells were pretreated with BC-1485 at different concentrations for 16 h before exposed to DSS (2%, 16 h) or IFNγ (10 ng/ml, 1 h). Cells were collected and assayed for protein immunoblotting.

FIEL1/PIAS4 interaction = target: T1, FIEL1/PIAS4 interaction (Homo sapiens, UniProt O15033); assay: In vitro drug binding assay: PIAS4 pull-down on drug-bound FIEL1 beads
T1 construct: made in house; host or cells: 293T cells (FIEL1)
T1 sequence (O15033 1-789 isoform O15033-2): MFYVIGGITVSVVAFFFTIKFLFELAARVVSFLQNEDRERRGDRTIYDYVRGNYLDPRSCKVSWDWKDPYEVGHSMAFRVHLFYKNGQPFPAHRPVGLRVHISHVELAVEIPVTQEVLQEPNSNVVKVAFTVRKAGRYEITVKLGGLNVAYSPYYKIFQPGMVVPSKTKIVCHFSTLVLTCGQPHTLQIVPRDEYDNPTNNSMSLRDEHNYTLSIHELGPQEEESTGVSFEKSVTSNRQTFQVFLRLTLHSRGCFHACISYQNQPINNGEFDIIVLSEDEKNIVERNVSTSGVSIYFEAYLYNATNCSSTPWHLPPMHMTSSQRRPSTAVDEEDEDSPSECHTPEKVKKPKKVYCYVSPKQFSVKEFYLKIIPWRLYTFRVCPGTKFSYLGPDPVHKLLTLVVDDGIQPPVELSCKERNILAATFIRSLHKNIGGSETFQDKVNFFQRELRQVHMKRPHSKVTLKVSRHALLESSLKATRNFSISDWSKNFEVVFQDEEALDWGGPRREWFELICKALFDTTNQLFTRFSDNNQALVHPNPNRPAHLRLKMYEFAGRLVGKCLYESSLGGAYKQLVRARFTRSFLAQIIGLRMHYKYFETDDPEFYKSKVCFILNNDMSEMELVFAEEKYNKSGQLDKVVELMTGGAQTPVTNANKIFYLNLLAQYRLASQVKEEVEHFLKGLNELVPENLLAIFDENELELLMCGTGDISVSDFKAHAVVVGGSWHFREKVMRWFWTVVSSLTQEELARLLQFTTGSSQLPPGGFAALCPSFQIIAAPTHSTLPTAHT
Protocol: as §1
FIEL1 protein was HIS-purified from FIEL1 expression 293T cells using cobalt beads. Beads were then extensively washed prior to exposure to BC-1480 or BC-1485 at different concentrations (10^−4 to 100 μM). Purified recombinant PIAS4 protein was then incubated with drug-bound FIEL1 beads overnight. […] The relative amounts of PIAS4 detected in the pull-downs were normalized to loading and quantified.

[2] = bleomycin 0.05 U i.t., up to 21 days, drinking water
[3] = 16 h pretreatment, then DSS 2% 16 h or IFNγ 10 ng/ml 1 h

SMILES: CC(NC(=O)c1ccc(NS(=O)(=O)c2ccc3[nH]c(=O)[nH]c3c2)cc1)C(=O)N(C)C (centres unmarked) [BC-1485]
- lung hydroxyproline content ([1]; 7, 14 and 21 d after bleomycin): significant decrease
- lung (pulmonary) fibrosis ([1]; bleomycin 0.05 U i.t.): marked decrease
- lung (pulmonary) fibrosis ([1]; bleomycin 0.05 U i.t., listed as BC 1485): inhibition of pulmonary fibrosis
- BAL CXCL1 levels [1, 2]: significantly decreased
- BAL IL-6 levels [1, 2]: significantly decreased
- BAL protein concentrations [1, 2]: significantly decreased
- BAL total cell counts [1, 2]: significantly decreased
- survival ([1]; bleomycin 0.05 U i.t., drinking water): significantly improved
- lung collagen (Mason Trichrome staining) ([1]; bleomycin 0.05 U i.t.): Decreased
- peribronchiolar and parenchymal fibrosis (H&E) ([1]; bleomycin 0.05 U i.t.): substantially decreased
- JAK/STAT pathway signaling (JAK/STAT pathway): inhibits the signaling transduction; also recorded: inhibits JAK/STAT pathway
- JAK1 protein level (JAK/STAT pathway; [3]): effectively decreases
- JAK2 protein level (JAK/STAT pathway; [3]): effectively decreases
- p-Stat1 protein level (JAK/STAT pathway; [3]): effectively decreases
- p-Stat3 protein level (JAK/STAT pathway; [3]): effectively decreases
- activity in disrupting the FIEL1/PIAS4 interaction compared to BC-1480 (FIEL1/PIAS4 interaction; 10^−4 to 100 μM compound on FIEL1 beads, FIG. 7C): > 100 fold
- inhibition of FIEL1 and PIAS4 interaction (FIEL1/PIAS4 interaction; FIG. 7): inhibition of FIEL1 and PIAS4 interaction
